Laboratory results as given in PMC5216056 (Nature Communications, 2017).
“Also recorded” adds a separate entry of the source.

Tests used:
human P-gp = human P-gp (Homo sapiens, UniProt P08183); conditions: efflux ratio
PAC1 (PACAP) (h) = biological target: T1, PAC1 (PACAP) (h) (Homo sapiens, UniProt P41586); experiment: CEREP panel; type: binding; conditions: 10 µM
T1 construct: CEREP (contract assay)
T1 sequence (P41586 21-468): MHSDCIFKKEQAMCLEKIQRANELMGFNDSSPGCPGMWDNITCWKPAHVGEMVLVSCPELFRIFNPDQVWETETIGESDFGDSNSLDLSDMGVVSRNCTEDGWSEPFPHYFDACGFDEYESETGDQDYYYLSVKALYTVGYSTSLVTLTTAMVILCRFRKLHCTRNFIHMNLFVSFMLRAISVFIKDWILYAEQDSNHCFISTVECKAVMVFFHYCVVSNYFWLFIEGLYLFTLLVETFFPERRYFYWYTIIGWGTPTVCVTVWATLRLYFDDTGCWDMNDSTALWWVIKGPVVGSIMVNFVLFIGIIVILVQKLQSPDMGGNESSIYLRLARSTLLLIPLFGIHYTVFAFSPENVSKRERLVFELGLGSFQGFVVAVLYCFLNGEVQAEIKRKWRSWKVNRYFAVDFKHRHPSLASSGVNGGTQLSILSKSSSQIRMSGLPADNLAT

alpha 1A (h) = biological target: T2, alpha 1A (h) (Homo sapiens, UniProt P35348); experiment: CEREP panel; type: binding; conditions: 10 µM
T2 construct: CEREP
T2 sequence (P35348 1-466): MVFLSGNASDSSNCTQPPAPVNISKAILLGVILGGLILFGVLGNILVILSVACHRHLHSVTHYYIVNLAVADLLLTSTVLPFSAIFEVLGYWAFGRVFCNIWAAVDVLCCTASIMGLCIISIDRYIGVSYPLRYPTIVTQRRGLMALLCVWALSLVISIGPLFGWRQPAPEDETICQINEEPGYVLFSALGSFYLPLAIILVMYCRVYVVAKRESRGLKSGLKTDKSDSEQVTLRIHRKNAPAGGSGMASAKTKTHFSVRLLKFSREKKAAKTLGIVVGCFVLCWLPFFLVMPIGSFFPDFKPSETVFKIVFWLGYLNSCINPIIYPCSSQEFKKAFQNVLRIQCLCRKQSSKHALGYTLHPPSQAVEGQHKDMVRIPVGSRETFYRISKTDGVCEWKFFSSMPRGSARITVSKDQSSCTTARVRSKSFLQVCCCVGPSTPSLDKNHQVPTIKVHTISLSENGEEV

C57BL6/J mice [1] = experiment: Triad assay: catalepsy; type: in vivo, mouse; conditions: for catalepsy, cannabimimetic effect: 1-100 mg kg^−1 i.p., cumulative, mice
AT2 (h) = biological target: T3, AT2 (h) (Homo sapiens, UniProt P50052); experiment: CEREP panel; type: binding; conditions: 10 µM
T3 construct: CEREP
T3 sequence (P50052 1-363): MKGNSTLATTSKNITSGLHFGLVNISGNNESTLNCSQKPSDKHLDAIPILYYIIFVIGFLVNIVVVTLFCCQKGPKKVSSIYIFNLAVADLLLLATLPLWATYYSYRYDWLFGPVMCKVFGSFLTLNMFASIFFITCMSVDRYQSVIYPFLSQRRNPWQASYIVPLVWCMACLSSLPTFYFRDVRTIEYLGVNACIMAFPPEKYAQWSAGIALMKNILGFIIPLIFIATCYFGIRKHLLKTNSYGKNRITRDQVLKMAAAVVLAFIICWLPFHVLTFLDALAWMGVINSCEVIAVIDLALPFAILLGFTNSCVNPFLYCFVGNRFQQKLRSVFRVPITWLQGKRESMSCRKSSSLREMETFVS

P2Y = experiment: CEREP panel; type: binding; conditions: 10 µM
C57BL6/J mice [2] = experiment: Triad assay: hypothermia; type: in vivo, mouse; conditions: for hypothermia, cannabimimetic effect: 1-100 mg kg^−1 i.p., cumulative, mice
Rat recombinant TRPV4 = biological target: T4, Rat recombinant TRPV4 (Rattus norvegicus, UniProt Q9ERZ8); experiment: cell-based; type: cell-based; conditions: for IC50: vs 4αPDD 1μM, read-out: TRPV4 IC50 for desensitization
T4 construct: expressed in transfected cells; host or cells: HEK293 (TRPV4-HEK-293, gift from HB Bradshaw, Indiana University)
T4 sequence (Q9ERZ8 whole entry): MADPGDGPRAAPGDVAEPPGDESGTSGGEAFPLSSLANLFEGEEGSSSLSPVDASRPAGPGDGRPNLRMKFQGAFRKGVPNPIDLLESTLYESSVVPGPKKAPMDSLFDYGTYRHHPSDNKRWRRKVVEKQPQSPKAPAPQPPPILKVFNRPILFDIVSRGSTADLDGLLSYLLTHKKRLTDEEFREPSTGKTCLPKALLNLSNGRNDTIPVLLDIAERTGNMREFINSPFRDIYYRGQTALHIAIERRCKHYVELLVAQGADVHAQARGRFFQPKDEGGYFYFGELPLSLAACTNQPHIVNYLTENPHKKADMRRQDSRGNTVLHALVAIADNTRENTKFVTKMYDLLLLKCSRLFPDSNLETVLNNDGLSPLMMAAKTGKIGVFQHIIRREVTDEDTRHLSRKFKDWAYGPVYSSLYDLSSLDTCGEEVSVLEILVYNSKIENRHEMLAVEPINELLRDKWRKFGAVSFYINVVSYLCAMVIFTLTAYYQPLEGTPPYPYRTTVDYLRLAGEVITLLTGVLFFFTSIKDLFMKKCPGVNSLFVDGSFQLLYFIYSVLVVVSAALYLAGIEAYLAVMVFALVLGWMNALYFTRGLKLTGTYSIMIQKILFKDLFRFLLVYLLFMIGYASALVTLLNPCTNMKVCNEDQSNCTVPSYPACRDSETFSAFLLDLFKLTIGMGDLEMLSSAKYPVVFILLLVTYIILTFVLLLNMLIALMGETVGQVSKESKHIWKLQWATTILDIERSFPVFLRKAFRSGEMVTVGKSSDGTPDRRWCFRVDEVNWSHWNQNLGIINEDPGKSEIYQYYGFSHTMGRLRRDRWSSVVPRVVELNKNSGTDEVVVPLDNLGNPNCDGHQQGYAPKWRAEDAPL

[3] = 1 μM
NTS1 (NT1) (h) = biological target: T5, NTS1 (NT1) (h) (Homo sapiens, UniProt P30989); experiment: CEREP panel; type: binding; conditions: 10 µM
T5 construct: CEREP (contract assay)
T5 sequence (P30989 whole entry): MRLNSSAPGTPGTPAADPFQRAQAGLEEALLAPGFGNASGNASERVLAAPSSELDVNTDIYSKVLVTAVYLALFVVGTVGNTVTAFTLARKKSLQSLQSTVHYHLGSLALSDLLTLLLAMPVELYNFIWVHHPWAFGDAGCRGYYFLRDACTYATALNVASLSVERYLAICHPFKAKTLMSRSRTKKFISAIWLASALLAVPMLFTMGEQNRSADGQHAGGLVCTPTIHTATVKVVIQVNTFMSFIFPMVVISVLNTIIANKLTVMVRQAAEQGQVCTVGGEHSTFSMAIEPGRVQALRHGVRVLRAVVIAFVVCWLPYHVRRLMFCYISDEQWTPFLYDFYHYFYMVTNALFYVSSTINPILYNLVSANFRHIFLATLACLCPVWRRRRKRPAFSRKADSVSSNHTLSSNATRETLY

BB = experiment: CEREP panel; type: binding; conditions: 10 µM
beta 2 (h) = biological target: T6, beta 2 (h) (Homo sapiens, UniProt P07550); experiment: CEREP panel; type: binding; conditions: 10 µM
T6 construct: CEREP
T6 sequence (P07550 whole entry): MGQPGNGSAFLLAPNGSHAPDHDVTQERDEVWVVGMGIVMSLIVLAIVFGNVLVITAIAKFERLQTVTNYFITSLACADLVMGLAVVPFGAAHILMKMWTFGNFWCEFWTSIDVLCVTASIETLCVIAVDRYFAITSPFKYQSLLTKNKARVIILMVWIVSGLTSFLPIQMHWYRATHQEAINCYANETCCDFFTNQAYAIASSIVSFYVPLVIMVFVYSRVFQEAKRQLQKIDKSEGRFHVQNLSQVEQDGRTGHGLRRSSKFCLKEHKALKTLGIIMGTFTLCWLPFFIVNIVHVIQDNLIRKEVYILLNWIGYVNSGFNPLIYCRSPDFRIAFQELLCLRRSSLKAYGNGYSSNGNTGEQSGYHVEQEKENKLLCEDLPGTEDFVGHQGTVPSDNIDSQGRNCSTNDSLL

A2A (h) = biological target: T7, A2A (h) (Homo sapiens, UniProt P29274); experiment: CEREP panel; type: binding; conditions: 10 µM
T7 construct: CEREP
T7 sequence (P29274 whole entry): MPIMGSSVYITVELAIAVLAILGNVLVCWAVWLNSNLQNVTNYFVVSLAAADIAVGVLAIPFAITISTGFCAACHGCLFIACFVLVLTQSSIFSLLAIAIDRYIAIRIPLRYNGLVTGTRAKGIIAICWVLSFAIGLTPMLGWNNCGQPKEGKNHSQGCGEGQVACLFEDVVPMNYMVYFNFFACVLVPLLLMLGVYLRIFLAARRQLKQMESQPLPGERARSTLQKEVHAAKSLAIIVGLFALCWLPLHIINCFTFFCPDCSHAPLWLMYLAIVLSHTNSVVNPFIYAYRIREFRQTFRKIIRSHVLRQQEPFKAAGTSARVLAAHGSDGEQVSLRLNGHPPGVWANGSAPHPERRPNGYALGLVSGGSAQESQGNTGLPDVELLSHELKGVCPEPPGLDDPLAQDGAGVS

[4] = test system: Ca2+ channel (verapamil site); experiment: CEREP panel; type: binding; conditions: 10 µM
mCB2R = mCB2R (Mus musculus, UniProt P47936); experiment: [35S]GTPγS assay; type: biochemical; set-up: from tissue; host or cells: spleen of male C57BL/6J mice; conditions: for Emax ± SEM GTPγS mCB2R: normalized to 10 µM CP55940
Chain of mCB2R (P47936 whole entry): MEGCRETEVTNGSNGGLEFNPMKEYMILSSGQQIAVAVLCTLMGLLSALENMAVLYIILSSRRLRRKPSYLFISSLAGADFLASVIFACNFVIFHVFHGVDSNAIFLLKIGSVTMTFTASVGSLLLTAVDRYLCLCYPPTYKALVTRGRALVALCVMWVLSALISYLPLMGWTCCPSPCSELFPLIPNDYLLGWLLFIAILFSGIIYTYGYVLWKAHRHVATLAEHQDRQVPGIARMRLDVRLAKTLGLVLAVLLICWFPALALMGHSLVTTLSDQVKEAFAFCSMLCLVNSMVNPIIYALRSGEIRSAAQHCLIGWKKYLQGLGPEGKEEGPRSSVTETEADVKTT

NK1 (h) = biological target: T8, NK1 (h) (Homo sapiens, UniProt P25103); experiment: CEREP panel; type: binding; conditions: 10 µM
T8 construct: CEREP (contract assay)
T8 sequence (P25103 whole entry): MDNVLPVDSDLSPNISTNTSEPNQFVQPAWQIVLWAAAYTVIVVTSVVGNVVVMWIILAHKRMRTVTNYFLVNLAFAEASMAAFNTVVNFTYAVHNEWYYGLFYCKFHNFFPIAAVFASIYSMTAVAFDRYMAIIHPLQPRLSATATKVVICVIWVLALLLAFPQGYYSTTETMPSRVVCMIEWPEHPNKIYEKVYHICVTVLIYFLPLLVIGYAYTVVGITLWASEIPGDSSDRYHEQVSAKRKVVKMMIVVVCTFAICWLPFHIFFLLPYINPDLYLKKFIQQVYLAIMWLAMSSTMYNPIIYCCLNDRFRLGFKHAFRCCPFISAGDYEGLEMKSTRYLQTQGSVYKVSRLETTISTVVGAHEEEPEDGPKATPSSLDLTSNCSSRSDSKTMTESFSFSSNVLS

CB1 (h) = biological target: T9, CB1 (h) (Homo sapiens, UniProt P21554); experiment: biochemical; type: binding; conditions: 10 µM
T9 construct: CEREP (contract assay)
T9 sequence (P21554 whole entry): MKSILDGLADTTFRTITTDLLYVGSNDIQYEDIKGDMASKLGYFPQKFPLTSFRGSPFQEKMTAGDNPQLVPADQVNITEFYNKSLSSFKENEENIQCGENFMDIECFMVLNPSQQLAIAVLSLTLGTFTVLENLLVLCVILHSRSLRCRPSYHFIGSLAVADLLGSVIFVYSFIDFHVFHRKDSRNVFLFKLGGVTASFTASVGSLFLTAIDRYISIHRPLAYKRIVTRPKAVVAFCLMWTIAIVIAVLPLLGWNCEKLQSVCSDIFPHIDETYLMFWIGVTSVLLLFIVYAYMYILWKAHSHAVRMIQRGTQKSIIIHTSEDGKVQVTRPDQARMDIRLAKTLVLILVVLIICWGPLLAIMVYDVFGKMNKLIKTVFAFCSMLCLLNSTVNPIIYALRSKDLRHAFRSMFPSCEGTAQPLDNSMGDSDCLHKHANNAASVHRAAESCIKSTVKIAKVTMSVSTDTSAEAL

[5] = test system: sigma (non-selective) (h); type: binding, human; conditions: 10 µM
sst4 (h) = biological target: T10, sst4 (h) (Homo sapiens, UniProt P31391); experiment: CEREP panel; type: binding; conditions: 10 µM
T10 construct: CEREP (contract assay)
T10 sequence (P31391 whole entry): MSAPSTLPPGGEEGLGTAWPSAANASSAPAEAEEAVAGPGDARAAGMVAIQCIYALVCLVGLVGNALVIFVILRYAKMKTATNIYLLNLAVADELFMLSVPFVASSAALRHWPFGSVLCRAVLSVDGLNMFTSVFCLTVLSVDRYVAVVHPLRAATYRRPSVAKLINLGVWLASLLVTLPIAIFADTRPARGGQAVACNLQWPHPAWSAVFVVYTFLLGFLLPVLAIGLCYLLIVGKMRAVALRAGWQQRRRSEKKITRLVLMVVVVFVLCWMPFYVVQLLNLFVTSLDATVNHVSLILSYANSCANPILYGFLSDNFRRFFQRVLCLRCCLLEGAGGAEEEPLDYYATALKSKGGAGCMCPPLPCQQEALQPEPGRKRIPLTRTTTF

D1 (h) = biological target: T11, D1 (h) (Homo sapiens, UniProt P21728); experiment: CEREP panel; type: binding; conditions: 10 µM
T11 construct: CEREP (contract assay)

5-HT2A (h) = biological target: T12, 5-HT2A (h) (Homo sapiens, UniProt P28223); experiment: CEREP panel; type: binding; conditions: 10 µM
T12 construct: CEREP (contract assay)

[6] = pretreatment (SR141716A 3 mg kg^−1, HU910 30 mg kg^−1) before HU210 1.7 mg kg^−1

Chain of human P-gp (P08183 whole entry): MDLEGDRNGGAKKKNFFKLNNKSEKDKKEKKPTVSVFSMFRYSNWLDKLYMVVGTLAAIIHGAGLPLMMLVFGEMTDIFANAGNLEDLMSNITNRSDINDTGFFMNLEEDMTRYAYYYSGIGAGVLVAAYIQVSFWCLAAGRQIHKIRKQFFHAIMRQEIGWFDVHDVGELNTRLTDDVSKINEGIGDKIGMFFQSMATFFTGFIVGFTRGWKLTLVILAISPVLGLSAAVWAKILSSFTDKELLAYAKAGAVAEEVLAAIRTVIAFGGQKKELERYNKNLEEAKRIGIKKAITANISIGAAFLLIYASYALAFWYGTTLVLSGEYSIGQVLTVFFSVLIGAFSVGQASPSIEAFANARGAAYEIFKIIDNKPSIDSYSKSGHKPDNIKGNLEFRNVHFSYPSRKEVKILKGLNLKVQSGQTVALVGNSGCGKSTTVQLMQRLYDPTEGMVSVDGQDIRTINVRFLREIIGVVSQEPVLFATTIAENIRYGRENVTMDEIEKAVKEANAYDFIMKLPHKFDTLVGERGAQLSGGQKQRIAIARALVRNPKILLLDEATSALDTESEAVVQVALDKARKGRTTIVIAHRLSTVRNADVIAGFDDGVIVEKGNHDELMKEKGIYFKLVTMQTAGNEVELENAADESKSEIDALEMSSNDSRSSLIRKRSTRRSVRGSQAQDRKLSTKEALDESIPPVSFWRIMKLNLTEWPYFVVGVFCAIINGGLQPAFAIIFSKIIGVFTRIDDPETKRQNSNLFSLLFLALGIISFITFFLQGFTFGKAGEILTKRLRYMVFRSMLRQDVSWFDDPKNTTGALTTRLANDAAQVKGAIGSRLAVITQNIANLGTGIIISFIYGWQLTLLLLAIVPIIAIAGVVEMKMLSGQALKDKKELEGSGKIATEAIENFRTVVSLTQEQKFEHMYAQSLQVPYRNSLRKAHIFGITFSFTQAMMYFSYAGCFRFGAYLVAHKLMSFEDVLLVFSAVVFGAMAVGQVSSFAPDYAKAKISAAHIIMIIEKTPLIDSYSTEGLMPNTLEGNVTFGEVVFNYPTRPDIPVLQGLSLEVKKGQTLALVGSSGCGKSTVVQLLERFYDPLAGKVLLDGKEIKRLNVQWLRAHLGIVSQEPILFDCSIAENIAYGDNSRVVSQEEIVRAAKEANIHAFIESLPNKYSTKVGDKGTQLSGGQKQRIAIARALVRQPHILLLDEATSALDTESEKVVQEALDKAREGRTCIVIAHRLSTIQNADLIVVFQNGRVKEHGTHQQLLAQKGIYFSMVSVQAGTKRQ

Molecule	P-gp (ER) human (human P-gp)	% inhibition PAC1 (PACAP) (h) (PAC1 (PACAP) (h))	% inhibition alpha 1A (h) (alpha 1A (h))	catalepsy, cannabimimetic effect (C57BL6/J mice [1])	% inhibition AT2 (h) (AT2 (h))	% inhibition P2Y (P2Y)	hypothermia, cannabimimetic effect (C57BL6/J mice [2])	TRPV4 Efficacy (% ionomycin 4μM) (Rat recombinant TRPV4)	IC50 (Rat recombinant TRPV4)	CL hepatocytes human [3]	% inhibition NTS1 (NT1) (h) (NTS1 (NT1) (h))	% inhibition BB (BB)	% inhibition beta 2 (h) (beta 2 (h))	% inhibition A2A (h) (A2A (h))	% inhibition Ca2+ channel (verapamil site) [4]	pEC50 ± SEM GTPγS mCB2R (mCB2R)	Emax ± SEM GTPγS mCB2R (mCB2R)	% inhibition NK1 (h) (NK1 (h))	% inhibition CB1 (h) (CB1 (h))	% inhibition sigma (non-selective) (h) [5]	other results
CCCCCCC(C)(C)c1cc(OC)c(C2=C[C@H]3CC[C@]2(CO)C3(C)C)c(OC)c1 [HU910]	2.2	0%	1%	did not produce detectable; also recorded: lacked appreciable pharmacological effects	13%	-7%	did not produce detectable; also recorded: lacked appreciable pharmacological effects	< 10%	> 100 µM	9.2 µL/min/mio cells	-19%	18%	-5%	50%	7%	7.27 ± 0.08	78 ± 4%	42%	71%	–	antagonism of HU210-induced catalepsy (C57BL6/J mice [1]; [6]): did not significantly reduce; antagonism of HU210-induced hypothermia (C57BL6/J mice [2]; [6]): did not significantly reduce
CCCC(C)(C)c1ccc2c(c1)OC(C)(C)[C@@H]1CC=C(C)C[C@@H]21 [JWH133]	–	12%	-5%	did not produce detectable; also recorded: lacked appreciable pharmacological effects	0%	3%	did not produce detectable; also recorded: lacked appreciable pharmacological effects	13.6%	> 100 µM	5.6 µL/min/mio cells	0%	0%	-15%	4%	1%	7.03 ± 0.14	103 ± 7%	13%	6	2%	EC50 (Rat recombinant TRPV4; read-out: TRPV4 Potency EC50): 12 µM
Cc1c(C(=O)c2cccc3ccccc23)c2cccc3c2n1[C@H](CN1CCOCC1)CO3 [WIN55212-2]	–	–	15%	–	–	–	–	< 10%	16.1 ± 1.7 µM	42 µL/min/mio cells	–	–	–	–	–	–	–	–	–	–	% inhibition sst4 (h) (sst4 (h)): 64%
SR144528	–	–	-1%	–	–	–	–	< 10%	–	–	–	–	–	–	–	–	–	–	–	–	–
Cc1ccc2c(c1)Cc1c(C(=O)NN3CCCCC3)nn(-c3ccc(Cl)cc3Cl)c1-2 [Gp-1a]	1.0	–	11%	–	–	–	–	< 10%	2.2 ± 0.1 µM	32 µL/min/mio cells	–	–	–	–	–	–	–	–	–	51%	% inhibition D1 (h) (D1 (h)): 63%
CCCn1c(C)c(C(=O)c2cccc3ccccc23)c2ccccc21 [JWH015]	–	–	16%	–	–	–	–	–	–	16 µL/min/mio cells	–	–	–	–	–	–	–	–	–	–	% inhibition 5-HT2A (h) (5-HT2A (h)): 56%
